Measured values from patent EP4707280A1, “1,4-CINEOLE DERIVATIVE AND INTERMEDIATE THEREOF, HERBICIDE CONTAINING SAID DERIVATIVE AS ACTIVE INGREDIENT, METHOD FOR USING HERBICIDE, AND METHOD FOR PREPARING AGROCHEMICAL COMPOSITION” (HOKKO CHEMICAL INDUSTRY CO., LTD., priority 2023, dated 2024).

Columns and labels:
Format in all cases: in vivo
Monochoria vaginalis = experiment: Test Example 2: herbicidal effect test by application during growth period of paddy rice; conditions: Pontederia vaginalis; 120 g per 10 ares; applied seven days after sowing, flooded pots; 14 days after application; read-out: weed inhibition rate
Method in brief: (§1)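 Weeds sown into puddled, flooded paddy soil received a post-emergence water application of emulsifiable concentrate at 120 g active ingredient per 10 ares, seven days after sowing. Herbicidal effect was rated 14 days later as inhibition (%).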

[1] = test system: Echinochloa crus-galli var. formosensis; experiment: as above; conditions: Echinochloa crus-galli; 120 g per 10 ares; applied seven days after sowing, flooded pots; 14 days after application; read-out: weed inhibition rate
Method in brief: as §1

Scirpus juncoides = experiment: as above; conditions: Schoenoplectiella juncoides; 120 g per 10 ares; applied seven days after sowing, flooded pots; 14 days after application; read-out: weed inhibition rate
Method in brief: as §1

Digitaria ciliaris [2] = experiment: Test Example 4: herbicidal effect test by stem and leaf treatment in upland field; conditions: Digitaria ciliaris; 120 g per 10 ares; sprayed seven days after sowing, upland soil; 14 days after application; read-out: weed inhibition rate
Echinochloa crus-galli [3] = experiment: Test Example 8: herbicidal effect test by stem and leaf treatment in upland field (low dose); conditions: Echinochloa crus-galli; 7.5 g per 10 ares; sprayed seven days after sowing, upland soil; 14 days after application; read-out: weed inhibition rate
Digitaria ciliaris [4] = experiment: as above; conditions: Digitaria ciliaris; 7.5 g per 10 ares; sprayed seven days after sowing, upland soil; 14 days after application; read-out: weed inhibition rate
[5] = test system: Echinochloa crus-galli var. formosensis; experiment: Test Example 6: herbicidal effect test by application during growth period of paddy rice (low dose); conditions: Echinochloa crus-galli; 7.5 g per 10 ares; applied seven days after sowing, flooded pots; 14 days after application; read-out: weed inhibition rate
Method in brief: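 Emulsifiable concentrate, water-diluted, dropped onto flooded paddy pots 7 days post-sowing at 7.5 g active ingredient/10 a. Greenhouse-grown weeds; percent inhibition scored at day 14 after treatment.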

Echinochloa crus-galli [6] = experiment: Test Example 7: herbicidal effect test by soil application in upland field (low dose); conditions: Echinochloa crus-galli, 7.5 g per 10 ares, sprayed one day after sowing, 14 days after application, read-out: weed inhibition rate
Method in brief: (§2)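 Low-dose soil treatment at 7.5 g a.i. per 10 a, applied as a diluted emulsifiable concentrate sprayed onto the soil surface one day after sowing in upland alluvial loam. Duplicate pots; percent weed inhibition is read 14 days after application.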

Digitaria ciliaris [7] = experiment: as above; conditions: Digitaria ciliaris, 7.5 g per 10 ares, sprayed one day after sowing, 14 days after application, read-out: weed inhibition rate
Method in brief: as §2

Echinochloa crus-galli [8] = experiment: Test Example 3: herbicidal effect test by soil application in upland field; conditions: Echinochloa crus-galli, 120 g per 10 ares, sprayed one day after sowing, 14 days after application, read-out: weed inhibition rate
Method in brief: (§3)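 Weed inhibition (%) was assessed 14 days after treatment, in duplicate per concentration group. Seeds had been mixed into the upper 1 cm of upland alluvial loam, and the soil surface was sprayed one day later with the diluted emulsifiable concentrate at 120 g active ingredient per 10 ares.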

Digitaria ciliaris [9] = experiment: as above; conditions: Digitaria ciliaris, 120 g per 10 ares, sprayed one day after sowing, 14 days after application, read-out: weed inhibition rate
Method in brief: as §3

C=CCO[C@@H]1C[C@]2(C)O[C@@]1(C(C)C)C[C@H]2OCc1ccccc1F [1-930, (1S,2R,4R,5R)-2-[(2-fluorophenyl)methoxy]-1-methyl-4-isopropyl-5-prop-2-enoxy-7-oxabicyclo[2.2.1]heptane]
≥ 80%: inhibition at 1200 g/ha (Monochoria vaginalis) | inhibition at 1200 g/ha [1] | inhibition at 1200 g/ha (Scirpus juncoides) | inhibition at 1200 g/ha (Digitaria ciliaris [2]) | inhibition at 75 g/ha (Echinochloa crus-galli [3]) | inhibition at 75 g/ha (Digitaria ciliaris [4]) | inhibition at 75 g/ha [5] | inhibition at 75 g/ha (Echinochloa crus-galli [6]) | inhibition at 75 g/ha (Digitaria ciliaris [7]) | inhibition at 1200 g/ha (Echinochloa crus-galli [8]) | inhibition at 1200 g/ha (Digitaria ciliaris [9])

CC(C)[C@]12C[C@@H](OCc3c(F)cccc3Br)[C@](C)(CC1=O)O2 [2-355, (1R,4S,5R)-5-((2-bromo-6-fluorobenzyl)oxy)-1-isopropyl-4-methyl-7-oxabicyclo[2.2.1]heptan-2-one]
≥ 80%: inhibition at 1200 g/ha (Monochoria vaginalis) | inhibition at 1200 g/ha [1] | inhibition at 1200 g/ha (Scirpus juncoides) | inhibition at 1200 g/ha (Digitaria ciliaris [2]) | inhibition at 75 g/ha (Echinochloa crus-galli [3]) | inhibition at 75 g/ha (Digitaria ciliaris [4]) | inhibition at 75 g/ha [5] | inhibition at 75 g/ha (Echinochloa crus-galli [6]) | inhibition at 75 g/ha (Digitaria ciliaris [7]) | inhibition at 1200 g/ha (Echinochloa crus-galli [8]) | inhibition at 1200 g/ha (Digitaria ciliaris [9])
